Experimental data published in ChEMBL document CHEMBL3734705, “Synthesis and in vitro cytotoxicity of novel C-12 substituted-14-deoxy-andrographolide derivatives as potent anti-cancer agents” (2015).

What was measured:
[1] = Cytotoxicity against human SNB75 cells assessed as growth level at 10 uM after 48 hrs by SRB assay; type: functional, SNB-75
[2] = Cytotoxicity against human OVCAR5 cells assessed as growth level at 10 uM after 48 hrs by SRB assay; type: functional, OVCAR-5
[3] = Cytotoxicity against human RPMI8226 cells assessed as growth level at 10 uM after 48 hrs by SRB assay; type: functional, RPMI-8226
[4] = Cytotoxicity against human DU145 cells assessed as growth inhibition at 10 uM after 48 hrs by SRB assay; type: functional; conditions: DU-145, 48 h, read-out: GI
NCI-H23 [5] = experiment: Cytotoxicity against human NCI-H23 cells assessed as growth inhibition at 10 uM after 48 hrs by SRB assay; type: functional; conditions: NCI-H23, 48 h, read-out: GI
T47D [6] = experiment: Cytotoxicity against human T47D cells assessed as growth level at 10 uM after 48 hrs by SRB assay; type: functional
[7] = Cytotoxicity against human RXF393 cells assessed as growth inhibition at 10 uM after 48 hrs by SRB assay; type: functional; conditions: RXF 393, 48 h, read-out: GI
[8] = Cytotoxicity against human HL-60(TB) cells assessed as growth level at 10 uM after 48 hrs by SRB assay; type: functional
NCI-H522 [9] = experiment: Cytotoxicity against human NCI-H522 cells assessed as growth inhibition at 10 uM after 48 hrs by SRB assay; type: functional; conditions: NCI-H522, 48 h, read-out: GI
SK-MEL-5 [10] = experiment: Cytotoxicity against human SK-MEL-5 cells assessed as growth level at 10 uM after 48 hrs by SRB assay; type: functional
T47D [11] = experiment: Cytotoxicity against human T47D cells assessed as growth inhibition at 10 uM after 48 hrs by SRB assay; type: functional; conditions: read-out: GI
[12] = Cytotoxicity against human HCC2998 cells assessed as growth level at 10 uM after 48 hrs by SRB assay; type: functional, HCC 2998
[13] = Cytotoxicity against human COLO205 cells assessed as growth inhibition at 10 uM after 48 hrs by SRB assay; type: functional; conditions: COLO 205, 48 h, read-out: GI
[14] = Cytotoxicity against human RXF393 cells assessed as growth level at 10 uM after 48 hrs by SRB assay; type: functional, RXF 393
[15] = Cytotoxicity against human HCC2998 cells assessed as growth inhibition at 10 uM after 48 hrs by SRB assay; type: functional; conditions: HCC 2998, 48 h, read-out: GI
NCI-H23 [16] = experiment: Cytotoxicity against human NCI-H23 cells assessed as growth level at 10 uM after 48 hrs by SRB assay; type: functional
U-251 = experiment: Cytotoxicity against human U251 cells assessed as growth inhibition at 10 uM after 48 hrs by SRB assay; type: functional; conditions: U-251, 48 h, read-out: GI
MCF7 = experiment: Cytotoxicity against human MCF7 cells assessed as growth inhibition at 10 uM after 48 hrs by SRB assay; type: functional; conditions: MCF7, 48 h, read-out: GI
[17] = Cytotoxicity against human SF539 cells assessed as growth level at 10 uM after 48 hrs by SRB assay; type: functional, SF-539
SN12C = experiment: Cytotoxicity against human SN12C cells assessed as growth level at 10 uM after 48 hrs by SRB assay; type: functional
KM12 = experiment: Cytotoxicity against human KM12 cells assessed as growth inhibition at 10 uM after 48 hrs by SRB assay; type: functional; conditions: KM12, 48 h, read-out: GI
[18] = Cytotoxicity against human UACC257 cells assessed as growth inhibition at 10 uM after 48 hrs by SRB assay; type: functional; conditions: UACC-257, 48 h, read-out: GI
[19] = Cytotoxicity against human SKOV3 cells assessed as growth level at 10 uM after 48 hrs by SRB assay; type: functional, SK-OV-3
NCI-H522 [20] = experiment: Cytotoxicity against human NCI-H522 cells assessed as growth level at 10 uM after 48 hrs by SRB assay; type: functional
CCRF-CEM = experiment: Cytotoxicity against human CCRF-CEM cells assessed as growth level at 10 uM after 48 hrs by SRB assay; type: functional
HT-29 = experiment: Cytotoxicity against human HT-29 cells assessed as growth level at 10 uM after 48 hrs by SRB assay; type: functional
SR = experiment: Cytotoxicity against human SR cells assessed as growth level at 10 uM after 48 hrs by SRB assay; type: functional
[21] = Cytotoxicity against human PC3 cells assessed as growth level at 10 uM after 48 hrs by SRB assay; type: functional, PC-3
[22] = Cytotoxicity against human SW620 cells assessed as growth level at 10 uM after 48 hrs by SRB assay; type: functional, SW-620
[23] = Cytotoxicity against human HCT15 cells assessed as growth level at 10 uM after 48 hrs by SRB assay; type: functional, HCT-15
NCI-H460 = experiment: Cytotoxicity against human NCI-H460 cells assessed as growth level at 10 uM after 48 hrs by SRB assay; type: functional
[24] = Cytotoxicity against human MOLT4 cells assessed as growth level at 10 uM after 48 hrs by SRB assay; type: functional, MOLT-4
SK-MEL-5 [25] = experiment: Cytotoxicity against human SK-MEL-5 cells assessed as growth inhibition at 10 uM after 48 hrs by SRB assay; type: functional; conditions: SK-MEL-5, 48 h, read-out: GI
[26] = Cytotoxicity against human HOP62 cells assessed as growth level at 10 uM after 48 hrs by SRB assay; type: functional, HOP-62
[27] = Cytotoxicity against human HOP62 cells assessed as growth inhibition at 10 uM after 48 hrs by SRB assay; type: functional; conditions: HOP-62, 48 h, read-out: GI
[28] = Cytotoxicity against human Hs578T cells assessed as growth level at 10 uM after 48 hrs by SRB assay; type: functional, Hs-578T
[29] = Cytotoxicity against human Caki1 cells assessed as growth inhibition at 10 uM after 48 hrs by SRB assay; type: functional; conditions: CAKI-1, 48 h, read-out: GI
Malme-3M = experiment: Cytotoxicity against human MALME-3M cells assessed as growth inhibition at 10 uM after 48 hrs by SRB assay; type: functional; conditions: read-out: GI
[30] = Cytotoxicity against human DU145 cells assessed as growth level at 10 uM after 48 hrs by SRB assay; type: functional, DU-145
[31] = Cytotoxicity against human Hs578T cells assessed as growth inhibition at 10 uM after 48 hrs by SRB assay; type: functional; conditions: Hs-578T, read-out: GI
[32] = Cytotoxicity against human LOXIMVI cells assessed as growth level at 10 uM after 48 hrs by SRB assay; type: functional, LOX IMVI
[33] = Cytotoxicity against human SNB75 cells assessed as growth inhibition at 10 uM after 48 hrs by SRB assay; type: functional; conditions: SNB-75, 48 h, read-out: GI
[34] = Cytotoxicity against human BT549 cells assessed as growth inhibition at 10 uM after 48 hrs by SRB assay; type: functional; conditions: BT-549, 48 h, read-out: GI
[35] = Cytotoxicity against human HL-60(TB) cells assessed as growth inhibition at 10 uM after 48 hrs by SRB assay; type: functional; conditions: HL-60, 48 h, read-out: GI
[36] = Cytotoxicity against human IGROV1 cells assessed as growth level at 10 uM after 48 hrs by SRB assay; type: functional, IGROV-1

C=C1CC[C@@H]2[C@](C)(COC(C)=O)[C@H](OC(C)=O)CC[C@@]2(C)[C@@H]1CC(NCCCCCCCC)C1=CCOC1=O (mixture of isomers)
Activity [1]: 74.62%
Activity [2]: 93.23%
Activity [3]: 35.98%
inhibition of growth at 10 µM [4]: 11.3%
inhibition of growth at 10 µM (NCI-H23 [5]): 29.2%
Activity (T47D [6]): 57.98%
inhibition of growth at 10 µM [7]: 14.3%
Activity [8]: 58.93%
inhibition of growth at 10 µM (NCI-H522 [9]): 35.6%
Activity (SK-MEL-5 [10]): 50.57%
inhibition of growth at 10 µM (T47D [11]): 42%
Activity [12]: 91.44%
inhibition of growth at 10 µM [13]: 29.2%
Activity [14]: 85.68%
inhibition of growth at 10 µM [15]: 8.56%
Activity (NCI-H23 [16]): 70.76%
inhibition of growth at 10 µM (U-251): 44.5%
inhibition of growth at 10 µM (MCF7): 31.2%
Activity [17]: 89.25%
Activity (SN12C): 73.09%
inhibition of growth at 10 µM (KM12): 31.4%
inhibition of growth at 10 µM [18]: 38.9%
Activity [19]: 77.13%
Activity (NCI-H522 [20]): 64.41%
Activity (CCRF-CEM): 47.26%
Activity (HT-29): 70.47%
Activity (SR): 36.8%
Activity [21]: 33.69%
Activity [22]: 72.43%
Activity [23]: 66.95%
Activity (NCI-H460): 52.67%
Activity [24]: 36.47%
inhibition of growth at 10 µM (SK-MEL-5 [25]): 49.4%
Activity [26]: 91.97%
inhibition of growth at 10 µM [27]: 8.03%
Activity [28]: 83.08%
inhibition of growth at 10 µM [29]: 31.3%
inhibition of growth at 10 µM (Malme-3M): 15.8%
Activity [30]: 88.73%
inhibition of growth at 10 µM [31]: 16.9%
Activity [32]: 53.89%
inhibition of growth at 10 µM [33]: 25.4%
inhibition of growth at 10 µM [34]: 30.4%
inhibition of growth at 10 µM [35]: 41.1%
Activity [36]: 70.18%

C=C1CC[C@@H]2[C@](C)(COC(C)=O)[C@H](OC(C)=O)CC[C@@]2(C)[C@@H]1CC(NCc1ccc(F)cc1)C1=CCOC1=O (mixture of isomers)
Activity [1]: 58.06%
Activity [2]: 99%
Activity [3]: 1.27%
inhibition of growth at 10 µM [4]: 30.2%
inhibition of growth at 10 µM (NCI-H23 [5]): 42.1%
Activity (T47D [6]): 26.6%
inhibition of growth at 10 µM [7]: 19.4%
Activity [8]: -9.52%
inhibition of growth at 10 µM (NCI-H522 [9]): 79.1%
Activity (SK-MEL-5 [10]): 11.81%
inhibition of growth at 10 µM (T47D [11]): 73.4%
Activity [12]: 89.3%
inhibition of growth at 10 µM [13]: 57.9%
Activity [14]: 80.59%
inhibition of growth at 10 µM [15]: 10.7%
Activity (NCI-H23 [16]): 57.85%
inhibition of growth at 10 µM (U-251): 52%
inhibition of growth at 10 µM (MCF7): 83.4%
Activity [17]: 64.45%
Activity (SN12C): 46.23%
inhibition of growth at 10 µM (KM12): 53.5%
inhibition of growth at 10 µM [18]: 54.2%
Activity [19]: 94.32%
Activity (NCI-H522 [20]): 20.93%
Activity (CCRF-CEM): 9.18%
Activity (HT-29): 21.32%
Activity (SR): 7.69%
Activity [21]: 20.82%
Activity [22]: 32.04%
Activity [23]: 37.04%
Activity (NCI-H460): 55.22%
Activity [24]: -0.37%
inhibition of growth at 10 µM (SK-MEL-5 [25]): 88.2%
Activity [26]: 78.73%
inhibition of growth at 10 µM [27]: 21.2%
Activity [28]: 72.47%
inhibition of growth at 10 µM [29]: 54%
inhibition of growth at 10 µM (Malme-3M): 34.9%
Activity [30]: 69.82%
inhibition of growth at 10 µM [31]: 27.5%
Activity [32]: 9.33%
inhibition of growth at 10 µM [33]: 41.9%
inhibition of growth at 10 µM [34]: 71.3%
inhibition of growth at 10 µM [35]: 9.52%
Activity [36]: 48.35%
